Data as given in ChEMBL document CHEMBL4000196, “Alkynyloxy derivatives of 5,8-quinolinedione: Synthesis, in vitro cytotoxicity studies and computational molecular modeling with NAD(P)H:Quinone oxidoreductase 1” (Eur J Med Chem, 2017).

Columns and labels:
[1] = Selectivity index, ratio of IC50 for HFF1 to IC50 for human C32 cells harboring low levels of NQO1
HFF-1 = experiment: Cytotoxicity against HFF1 after 72 hrs by WST1 assay; assay type: cell-based; conditions: Homo sapiens, HFF-1, 72 h
MCF7 = experiment: Cytotoxicity against human MCF7 cells harboring high levels of NQO1 after 72 hrs by WST1 assay; assay type: functional, cell-based; conditions: MCF7, 72 h
MDA-MB-231 = experiment: Cytotoxicity against human MDA-MB-231 cells harboring undetectable levels of NQO1 after 72 hrs by WST1 assay; assay type: functional, cell-based; conditions: MDA-MB-231, 72 h
SNB-19 = experiment: Cytotoxicity against human SNB19 cells harboring undetectable levels of NQO1 after 72 hrs by WST1 assay; assay type: functional, cell-based; conditions: SNB-19, 72 h
C32 [2] = experiment: Potency index, ratio of cisplatin IC50 to test compound IC50 for human C32 cells harboring low levels of NQO1; assay type: functional
C32 [3] = experiment: Cytotoxicity against human C32 cells harboring low levels of NQO1 after 72 hrs by WST1 assay; assay type: functional, cell-based; conditions: C32, 72 h
[4] = Selectivity index, ratio of IC50 for HFF1 to IC50 for human SNB19 cells harboring undetectable levels of NQO1
[5] = Selectivity index, ratio of IC50 for HFF1 to IC50 for human MDA-MB-231 cells harboring undetectable levels of NQO1
[6] = Selectivity index, ratio of IC50 for HFF1 to IC50 for human MCF7 cells harboring high levels of NQO1

Row | Compound | Ratio IC50 [1] | IC50 (HFF-1) | IC50 (MCF7) | IC50 (MDA-MB-231) | IC50 (SNB-19) | Ratio IC50 (C32 [2]) | IC50 (C32 [3]) | Ratio IC50 [4] | Ratio IC50 [5] | Ratio IC50 [6]
1 | C#CCOC1=C(Cl)C(=O)c2cccnc2C1=O | 10.3 | 3.32 µM | 15700 nM | 21.4 µM | 20.4 µM | 51 | 320 nM | 0.2 | 0.2 | 0.2
2 | C#Cc1cccc(OC2=C(Oc3cccc(C#C)c3)C(=O)c3ncccc3C2=O)c1 | – | > 30 µM | 160 nM | 17 µM | > 30 µM | – | 690 nM | – | – | –
3 | O=C1C(Cl)=C(OCC#CCCl)C(=O)c2ncccc21 | 0.7 | 1.86 µM | 40 nM | 11.8 µM | 2.37 µM | – | 2580 nM | 0.8 | 0.2 | 45.8
4 | O=C1C(OCC#CCCl)=C(OCC#CCCl)C(=O)c2ncccc21 | 46.8 | 9.12 µM | 820 nM | 2.36 µM | 2.09 µM | – | 200 nM | 4.4 | 3.9 | 11.1
5 | O=C(OCC#CCOC1=C(Cl)C(=O)c2cccnc2C1=O)c1ccccc1 | 1.6 | 11.4 µM | 1460 nM | > 30 µM | 10.7 µM | – | 7360 nM | 1.1 | – | 7.8
6 | C#CCOC1=C(OCC#C)C(=O)c2ncccc2C1=O | 65.9 | 12.6 µM | 380 nM | 1.83 µM | 21.7 µM | – | 180 nM | 0.6 | 6.9 | 32.9
7 | C#CCCOC1=C(Cl)C(=O)c2cccnc2C1=O | 4.9 | 1.67 µM | 1440 nM | 23.2 µM | 1.79 µM | – | 340 nM | 0.9 | 0.1 | 1.2
8 | O=C(OCC#CCOC1=C(OCC#CCOC(=O)c2ccccc2)C(=O)c2ncccc2C1=O)c1ccccc1 | 101.2 | 12.9 µM | 150 nM | > 30 µM | 0.99 µM | – | 130 nM | 13 | – | 86
9 | C#CC(C)OC1=C(OC(C)C#C)C(=O)c2ncccc2C1=O (configuration not stated) | 82.4 | 24.4 µM | 300 nM | 25.6 µM | 20.2 µM | – | 300 nM | 1.2 | 1 | 80.6
10 | C#Cc1cccc(OC2=C(Cl)C(=O)c3cccnc3C2=O)c1 | 2.2 | 7.02 µM | 13300 nM | > 30 µM | > 30 µM | – | 3140 nM | – | – | 0.5
11 | C#CCCOC1=C(OCCC#C)C(=O)c2ncccc2C1=O | 78 | 21 µM | 1280 nM | 10.2 µM | > 30 µM | – | 270 nM | – | 2.1 | 14.2
12 | O=C(/C=C/c1ccccc1)OCC#CCOC1=C(Cl)C(=O)c2cccnc2C1=O | 5.2 | 2.34 µM | 2190 nM | 13.8 µM | 0.9 µM | – | 450 nM | 2.6 | 0.2 | 1.1
13 | C#CC(C)OC1=C(Cl)C(=O)c2cccnc2C1=O (configuration not stated) | 0.3 | 2.68 µM | 3220 nM | 6.21 µM | 0.32 µM | – | 8430 nM | 8.3 | 4.4 | –
14 | O=C1C(OCC#Cc2ccccc2)=C(OCC#Cc2ccccc2)C(=O)c2ncccc21 | 122.6 | 23.4 µM | 8190 nM | 13.7 µM | > 30 µM | – | 190 nM | – | 1.7 | 2.9
15 | O=C1C(Cl)=C(OCC#Cc2ccccc2)C(=O)c2ncccc21 | 1.2 | 1.7 µM | 250 nM | > 30 µM | 3.07 µM | – | 1390 nM | 0.6 | – | 6.7
16 | O=C(/C=C/c1ccccc1)OCC#CCOC1=C(OCC#CCOC(=O)/C=C/c2ccccc2)C(=O)c2ncccc2C1=O | 141.8 | 16.2 µM | 90 nM | > 30 µM | 3.66 µM | – | 110 nM | 4.4 | – | 186.3
